The test deals with Entamoeba histolytica. Description: Antiamoebic activity against Entamoeba histolytica HM-1:IMSS after 72 hrs. The format is functional, organism-based.
Usually IC50 stands for the concentration at which inhibition is half-maximal. A high value points to weaker potency in that assay. As to `Cc1ccccc1NC(=S)N1N=C(c2ccccc2)CC1c1ccccc1` (stereo not drawn), 4.79 µM corresponded to half-maximal inhibition (IC50). That is a single-digit micromolar value.

Molecule `S=C(NCc1ccccc1Cl)N1N=C(c2ccccc2)CC1c1ccccc1` (stereo not drawn) gave an IC50 of 11 µM.

`S=C(N1CCN(c2ccccc2)CC1)N1N=C(c2ccccc2)CC1c1ccccc1` (stereo not drawn) came in with an IC50 of 1.8 µM.

`S=C(N1CCC(Cc2ccccc2)CC1)N1N=C(c2ccccc2)CC1c1ccccc1` (stereo not drawn): the IC50 is 1.6 µM.

For the molecule `Cc1cccc(NC(=S)N2N=C(c3ccccc3)CC2c2ccccc2)c1` (stereo not drawn), the IC50 is 10.7 µM.

As to `CN(Cc1ccccc1)C(=S)N1N=C(c2ccccc2)CC1c1ccccc1` (stereo not drawn), the IC50 is 2.8 µM.

`S=C(N1CCCc2ccccc21)N1N=C(c2ccccc2)CC1c1ccccc1` (stereo not drawn) registered a half-inhibitory concentration (IC50) of 0.45 µM.

In turn, `Cc1ccc(NC(=S)N2N=C(c3ccccc3)CC2c2ccccc2)cc1` (stereo not drawn) came in with an IC50 of 0.38 µM.

Values taken from ChEMBL document CHEMBL1143803, “Syntheses, characterization and in vitro antiamoebic activity of new Pd(II) complexes with 1-N-substituted thiocarbamoyl-3,5-diphenyl-2-pyrazoline derivatives” (Eur J Med Chem, 2007).
